Experiment: in vitro
Settings: African green monkey

Row | Structure (SMILES) | CC50 [µM]
1 | O=c1[nH]cnc2c([C@@H]3N[C@H](CO)[C@@H](O)[C@H]3O)c[nH]c12 [forodesine] | > 100
2 | CC(C)Nc1nc2cc(Cl)c(Cl)cc2n1[C@H]1O[C@@H](CO)[C@H](O)[C@@H]1O [maribavir] | > 100
3 | CC(C)C(=O)OC[C@H]1O[C@@H](n2ccc(NO)nc2=O)[C@H](O)[C@@H]1O [molnupiravir] | > 100
4 | COc1nc(N)nc2c1ncn2[C@@H]1O[C@H](CO)[C@@H](O)[C@@H]1O [nelarabine] | > 100
5 | CCC(CC)COC(=O)[C@H](C)N[P@](=O)(OC[C@H]1O[C@@](C#N)(c2ccc3c(N)ncnn23)[C@H](O)[C@@H]1O)Oc1ccccc1 [remdesivir] | > 100
6 | CC(C)=CCNc1ncnc2c1ncn2[C@@H]1O[C@H](CO)[C@@H](O)[C@H]1O [riboprine, N^6-(2-Isopentenyl)adenosine] | > 100
7 | OC[C@H]1O[C@@H](n2cnc3c(N[C@@H]4CCOC4)ncnc32)[C@H](O)[C@@H]1O [tecadenoson] | > 100
8 | Nc1ncnc2c1ncn2[C@@H]1O[C@H](CO)[C@@H](O)[C@@H]1O [vidarabine, Arabinosyladenine] | > 100
